We go through 2 molecules from patent publication US6201129A, “Tricyclic derivatives and their use as anti-cancer agents” (Univ. College Cardiff Consultants, priority 1997, dated 2001).

The assay relates to HT1080scc2 (clone of human fibrosarcoma cell-line HT1080). The assay is described as follows: Cell proliferation/cytotoxicity assay, methylene blue biomass staining. It counts as cell-based. The note with it: HT-1080, HT1080scc2 cells, 1×10^3 cells per well, compound added day 1, further 4 days at 37° C., methylene blue staining read at 620 nm. How it is done: Compounds of the general formula (I) have been tested against two specially developed cell lines which are clones of the human fibrosarcoma cell-line HT1080. One clone HT1080scc2, retains the transformed phenotype of the parental line, whilst the other, HT10801c, is a morphologically flat, non-tumourigenic, revertant.
Assays for cell proliferation/cytotoxity were carried out in tissue culture grade 96 well microtitre plates (Costar). Cells in log growth were added to the plates at a concentration of 1×10^3 cells per well on day 0 and serially diluted compounds were then added on day 1. Plates were then incubated at 37° C. in 5% CO2 in air for a further 4 days.
For quantitation of cell growth, the methylene blue biomass staining method was used, the test being read on a Multiscan plate reader at wavelength of 620 nm. The morphology of the cells was checked microscopically under phase-contrast immediately before the fixation and staining with methylene blue, and by ordinary light microscopy thereafter. IC50 values for active compounds were obtained using the computer programme, GS1 and dose-response slopes were also plotted.

As usually defined, the IC50 is the midpoint of a concentration-inhibition curve. Read a low IC50 as higher potency. In turn, `CCOC(=O)c1[nH]c2cc3[nH]c(C)cc3c(C)c2c1C` [Example 2, Ethyl 1,7-dihydro-3,4,6-trimethylpyrrolo[3,2-f]indole-2-carboxylate] registered an IC50 of 3 µM.

The molecule `CCOC(=O)c1[nH]c2cc3c(C(=O)OCC)c(C)[nH]c3c(C)c2c1C` [Example 1, Diethyl 1,5-dihydro-3,4,6-trimethylpyrrolo[2,3-f]indole-2,7-dicarboxylate] returned an IC50 of 100 µM.
